Experimental data taken from the supplement of paper PMC10307832.

What was measured:
Assay in all cases: relative viability (nuclei count vs DMSO), 5 days (fraction); higher = more cells survive
NCI-H322M = test system: NCI-H322M
Outline: (§1)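 Values are medians from duplicate plates. Each reflects relative viability, defined as the nuclei count of treated wells over that of vehicle wells. Lung cancer cell lines in 1536-well plates were pin-tool dosed one day after seeding with one drug alone or with a fixed anchor-drug dose plus five library-drug doses (not always all listed) in √10 steps, then fixed, stained and imaged at 4× after 5 days.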

HOP-62 = test system: HOP-62
Outline: as §1

HCC-44 = test system: HCC-44
Outline: as §1

NCI-H520 = test system: NCI-H520
Outline: as §1

NCI-H1651 = test system: NCI-H1651
Outline: as §1

NCI-H23 = test system: NCI-H23
Outline: as §1

LCLC-103H = test system: LCLC-103H
Outline: as §1

NCI-H2085 = test system: NCI-H2085
Outline: as §1

NCI-H838 = test system: NCI-H838
Outline: as §1

ABC-1 = test system: ABC-1
Outline: as §1

NCI-H1395 = test system: NCI-H1395
Outline: as §1

NCI-H1666 = test system: NCI-H1666
Outline: as §1

NCI-H647 = test system: NCI-H647
Outline: as §1

NCI-H1993 = test system: NCI-H1993
Outline: as §1

NCI-H661 = test system: NCI-H661
Outline: as §1

CAL-12T = test system: CAL-12T
Outline: as §1

COR-L23 = test system: COR-L23
Outline: as §1

201T = test system: 201T
Outline: as §1

NCI-H2347 = test system: NCI-H2347
Outline: as §1

NCI-H1355 = test system: NCI-H1355
Outline: as §1

NCI-H2170 = test system: NCI-H2170
Outline: as §1

NCI-H2228 = test system: NCI-H2228
Outline: as §1

LC-2-ad = test system: LC-2-ad
Outline: as §1

**Q.** `Cc1cnc(-c2cnc(NCCNc3ccc(C#N)cn3)nc2-c2ccc(Cl)cc2Cl)[nH]1` + COc1cccc2cc(-c3nc([C@H]4CC[C@H](C(=O)O)CC4)n4ncnc(N)c34)[nH]c12 [OSI-027] (partner 0.5 µM) was tested. Which relative viability (NCI-H322M; first compound 0.08 µM) did it give?
**A.** 0.641

**Q.** And the relative viability (NCI-H322M; first compound 0.253 µM)?
**A.** 0.658

**Q.** And the relative viability (NCI-H322M; first compound 0.8 µM)?
**A.** 0.45

**Q.** And the relative viability (NCI-H322M; first compound 2.53 µM)?
**A.** 1.3

**Q.** And the relative viability (HOP-62; first compound 0.08 µM)?
**A.** 0.914

**Q.** And the relative viability (HOP-62; first compound 0.253 µM)?
**A.** 0.813

**Q.** What about the relative viability (HOP-62; first compound 0.8 µM) of the same molecule?
**A.** 0.972

**Q.** What about the relative viability (HOP-62; first compound 2.53 µM) of the same molecule?
**A.** 0.795

**Q.** What about the relative viability (HCC-44; first compound 0.08 µM) of the same molecule?
**A.** 0.555

**Q.** What about the relative viability (HCC-44; first compound 0.253 µM) of the same molecule?
**A.** 0.483

**Q.** And the relative viability (HCC-44; first compound 0.8 µM)?
**A.** 0.485

**Q.** And the relative viability (HCC-44; first compound 2.53 µM)?
**A.** 0.932

**Q.** What about the relative viability (NCI-H520; first compound 0.08 µM) of the same molecule?
**A.** 0.24

**Q.** And the relative viability (NCI-H520; first compound 0.253 µM)?
**A.** 0.288

**Q.** And the relative viability (NCI-H520; first compound 0.8 µM)?
**A.** 0.274

**Q.** And the relative viability (NCI-H520; first compound 2.53 µM)?
**A.** 0.28

**Q.** And the relative viability (NCI-H1651; first compound 0.08 µM)?
**A.** 0.797

**Q.** What about the relative viability (NCI-H1651; first compound 0.253 µM) of the same molecule?
**A.** 0.589

**Q.** And the relative viability (NCI-H1651; first compound 0.8 µM)?
**A.** 0.71

**Q.** What about the relative viability (NCI-H1651; first compound 2.53 µM) of the same molecule?
**A.** 0.801

**Q.** What about the relative viability (NCI-H23; first compound 0.08 µM) of the same molecule?
**A.** 0.592

**Q.** What about the relative viability (NCI-H23; first compound 0.253 µM) of the same molecule?
**A.** 0.539

**Q.** And the relative viability (NCI-H23; first compound 0.8 µM)?
**A.** 0.58

**Q.** And the relative viability (NCI-H23; first compound 2.53 µM)?
**A.** 0.678

**Q.** What about the relative viability (LCLC-103H; first compound 0.08 µM) of the same molecule?
**A.** 0.46

**Q.** And the relative viability (LCLC-103H; first compound 0.253 µM)?
**A.** 0.413

**Q.** What about the relative viability (LCLC-103H; first compound 0.8 µM) of the same molecule?
**A.** 0.428

**Q.** And the relative viability (LCLC-103H; first compound 2.53 µM)?
**A.** 0.473

**Q.** What about the relative viability (NCI-H2085; first compound 0.08 µM) of the same molecule?
**A.** 0.812

**Q.** What about the relative viability (NCI-H2085; first compound 0.253 µM) of the same molecule?
**A.** 0.786

**Q.** What about the relative viability (NCI-H2085; first compound 0.8 µM) of the same molecule?
**A.** 0.677

**Q.** What about the relative viability (NCI-H2085; first compound 2.53 µM) of the same molecule?
**A.** 0.756

**Q.** What about the relative viability (NCI-H838; first compound 0.08 µM) of the same molecule?
**A.** 0.433

**Q.** What about the relative viability (NCI-H838; first compound 0.253 µM) of the same molecule?
**A.** 0.424

**Q.** And the relative viability (NCI-H838; first compound 0.8 µM)?
**A.** 0.46

**Q.** What about the relative viability (NCI-H838; first compound 2.53 µM) of the same molecule?
**A.** 0.846

**Q.** What about the relative viability (ABC-1; first compound 0.08 µM) of the same molecule?
**A.** 0.751

**Q.** And the relative viability (ABC-1; first compound 0.253 µM)?
**A.** 0.411

**Q.** And the relative viability (ABC-1; first compound 0.8 µM)?
**A.** 0.553

**Q.** And the relative viability (ABC-1; first compound 2.53 µM)?
**A.** 0.649

**Q.** And the relative viability (NCI-H1395; first compound 0.08 µM)?
**A.** 0.828

**Q.** And the relative viability (NCI-H1395; first compound 0.253 µM)?
**A.** 0.525

**Q.** What about the relative viability (NCI-H1395; first compound 0.8 µM) of the same molecule?
**A.** 0.602

**Q.** What about the relative viability (NCI-H1395; first compound 2.53 µM) of the same molecule?
**A.** 0.67

**Q.** And the relative viability (NCI-H1666; first compound 0.08 µM)?
**A.** 0.828

**Q.** And the relative viability (NCI-H1666; first compound 0.253 µM)?
**A.** 0.77

**Q.** What about the relative viability (NCI-H1666; first compound 0.8 µM) of the same molecule?
**A.** 0.894

**Q.** And the relative viability (NCI-H1666; first compound 2.53 µM)?
**A.** 0.903

**Q.** What about the relative viability (NCI-H647; first compound 0.08 µM) of the same molecule?
**A.** 0.752

**Q.** And the relative viability (NCI-H647; first compound 0.253 µM)?
**A.** 0.512

**Q.** What about the relative viability (NCI-H647; first compound 0.8 µM) of the same molecule?
**A.** 0.725

**Q.** What about the relative viability (NCI-H647; first compound 2.53 µM) of the same molecule?
**A.** 0.55

**Q.** What about the relative viability (NCI-H1993; first compound 0.08 µM) of the same molecule?
**A.** 0.568

**Q.** And the relative viability (NCI-H1993; first compound 0.253 µM)?
**A.** 0.49

**Q.** What about the relative viability (NCI-H1993; first compound 0.8 µM) of the same molecule?
**A.** 0.536

**Q.** What about the relative viability (NCI-H1993; first compound 2.53 µM) of the same molecule?
**A.** 0.577

**Q.** What about the relative viability (NCI-H661; first compound 0.08 µM) of the same molecule?
**A.** 0.77

**Q.** What about the relative viability (NCI-H661; first compound 0.253 µM) of the same molecule?
**A.** 0.667

**Q.** And the relative viability (NCI-H661; first compound 0.8 µM)?
**A.** 0.743

**Q.** And the relative viability (NCI-H661; first compound 2.53 µM)?
**A.** 0.802

**Q.** And the relative viability (CAL-12T; first compound 0.08 µM)?
**A.** 0.774

**Q.** And the relative viability (CAL-12T; first compound 0.253 µM)?
**A.** 0.59

**Q.** What about the relative viability (CAL-12T; first compound 0.8 µM) of the same molecule?
**A.** 0.565

**Q.** What about the relative viability (CAL-12T; first compound 2.53 µM) of the same molecule?
**A.** 0.571

**Q.** What about the relative viability (COR-L23; first compound 0.08 µM) of the same molecule?
**A.** 0.805

**Q.** What about the relative viability (COR-L23; first compound 0.253 µM) of the same molecule?
**A.** 0.762

**Q.** What about the relative viability (COR-L23; first compound 0.8 µM) of the same molecule?
**A.** 0.885

**Q.** What about the relative viability (COR-L23; first compound 2.53 µM) of the same molecule?
**A.** 0.906

**Q.** What about the relative viability (201T; first compound 0.08 µM) of the same molecule?
**A.** 0.562

**Q.** And the relative viability (201T; first compound 0.8 µM)?
**A.** 0.819

**Q.** What about the relative viability (201T; first compound 2.53 µM) of the same molecule?
**A.** 0.768

**Q.** And the relative viability (NCI-H2347; first compound 0.08 µM)?
**A.** 0.397

**Q.** And the relative viability (NCI-H2347; first compound 0.253 µM)?
**A.** 0.415

**Q.** What about the relative viability (NCI-H2347; first compound 0.8 µM) of the same molecule?
**A.** 0.324

**Q.** What about the relative viability (NCI-H2347; first compound 2.53 µM) of the same molecule?
**A.** 0.426

**Q.** And the relative viability (NCI-H1355; first compound 0.08 µM)?
**A.** 0.404

**Q.** What about the relative viability (NCI-H1355; first compound 0.253 µM) of the same molecule?
**A.** 0.434

**Q.** What about the relative viability (NCI-H1355; first compound 0.8 µM) of the same molecule?
**A.** 0.395

**Q.** What about the relative viability (NCI-H1355; first compound 2.53 µM) of the same molecule?
**A.** 0.439

**Q.** And the relative viability (NCI-H2170; first compound 0.08 µM)?
**A.** 0.732

**Q.** And the relative viability (NCI-H2170; first compound 0.253 µM)?
**A.** 0.554

**Q.** And the relative viability (NCI-H2170; first compound 0.8 µM)?
**A.** 0.705

**Q.** And the relative viability (NCI-H2170; first compound 2.53 µM)?
**A.** 0.609

**Q.** And the relative viability (NCI-H2228; first compound 0.08 µM)?
**A.** 0.779

**Q.** And the relative viability (NCI-H2228; first compound 0.253 µM)?
**A.** 0.807

**Q.** What about the relative viability (NCI-H2228; first compound 0.8 µM) of the same molecule?
**A.** 0.569

**Q.** And the relative viability (NCI-H2228; first compound 2.53 µM)?
**A.** 0.469

**Q.** And the relative viability (LC-2-ad; first compound 0.08 µM)?
**A.** 0.886

**Q.** What about the relative viability (LC-2-ad; first compound 0.253 µM) of the same molecule?
**A.** 0.713

**Q.** And the relative viability (LC-2-ad; first compound 2.53 µM)?
**A.** 0.962
